Entries after “also recorded” stand apart in the source; their conditions may differ.
How the values were obtained:
MCF7 xenograft tumors = assay: MCF7 breast cancer xenografts in ovariectomized NSG mice; assay type: in vivo, mouse; settings: 100 mg/kg s.c. daily
Protocol: For examination of the growth of ER-positive MCF7 xenograft tumors, female NSG mice were ovariectomized, and 2 weeks after ovariectomy, animals were supplemented with 0.36 mg E2-pellets (60-day release, Innovative Research of America) to support ER+ tumor growth. Cell suspensions of wild type MCF7 cells (1×10^6 cells/mouse) were injected subcutaneously (sc) in the right axial mammary gland and when tumors reached 100-150 mm^3 in size, mice were randomized and received compound or control vehicle (corn oil) by s.c. injection or oral gavage (PEG400/PVP/Tween/CMC as Veh) at the frequency indicated and tumor volume (length><width 2/2) was monitored over time.

MCF10A cells = assay: Cell proliferation, MCF10A (low FOXM1); assay type: cell-based, human; settings: 6 days
Protocol: (§1) Cell lines and cell culture methods MCF7 and other breast cancer cell lines were obtained from the ATCC and were maintained and cultured as described (Bergamaschi et al., Breast Cancer Res., 2014, 16:436; Madak-Erdogan et al., Mol. Syst. Biol., 2013, 9:676; Zhao et al., Cancer Res., 2017, 77:5602-13). DT22 cells were derived from a human triple negative invasive ductal breast carcinoma and were grown in culture as described (Drews-Elger et al., Breast cancer research and treatment, 2014, 144:503-17). All cells were tested for mycoplasma using Real-Time PCR Mycoplasma Detection Kit (Akron Biotech, Boca Raton, FL).
(§2) Cell proliferation assay WST-1 assay (Roche, Basel, Switzerland) was used to quantify cell viability as described (Gong et al., Mol. Cell Endocrinol., 2016, 437:190-200). Absorbance was measured at 450 nm using a VICTOR X5 PerkinElmer 2030 Multilabel Plate Reader. All assays were performed in triplicate.

[1] = system: DT22 triple negative human breast tumor xenografts; assay: DT22 triple negative breast tumor xenografts in NSG mice; assay type: in vivo, mouse
Protocol: In vivo breast cancer xenograft studies For examination of the growth of triple-negative DT22 breast tumors, intact female NOD/SCID-gamma (NSG) mice were used. DT-22 cells (1×10^6 cells/mouse) were injected s.c. into the right axial mammary gland. Mice received s.c. injection or oral gavage daily or every second or third day, as indicated, with vehicle or FOXM1 inhibitor compound, and tumor growth was monitored over time.

breast cancer cell lines = assay: Proliferation of breast cancer cell lines (panel, line not specified); assay type: cell-based, human
Protocol: (§3) All cells were tested for mycoplasma using Real-Time PCR Mycoplasma Detection Kit (Akron Biotech, Boca Raton, FL).
(§4) All assays were performed in triplicate.

[2] = Pharmacokinetic studies in mice after single s.c. or oral dose; settings: mice
DT22 cells = assay: Cell proliferation assay (WST-1), DT22; assay type: cell-based, human; settings: inhibition of cell proliferation; read-out: IC50 DT-22
Protocol: as §3, §4

MCF7 cells = assay: Cell proliferation assay (WST-1), MCF7; assay type: cell-based, human; settings: inhibition of cell proliferation; read-out: IC50 MCF7
Protocol: as §3, §4

[3] = system: MDA-MB-453 breast cancer cells; assay: Cell proliferation, MDA-MB-453; assay type: cell-based, human; settings: inhibition of cell proliferation
Protocol: as §1, §2

FOXM1 protein [4] = target: T1, FOXM1 protein (Homo sapiens, UniProt Q08050); assay: Competitive binding of inhibitors to FOXM1 by tr-FRET (Fl-NB-72 probe); settings: tr-FRET competition with Fl-NB-72; Ki calculated from IC50 (Cheng-Prusoff)
T1 construct: a terbium donor was attached to purified full length FOXM1 through a streptavidin-biotin linker
T1 sequence (Q08050 1-763): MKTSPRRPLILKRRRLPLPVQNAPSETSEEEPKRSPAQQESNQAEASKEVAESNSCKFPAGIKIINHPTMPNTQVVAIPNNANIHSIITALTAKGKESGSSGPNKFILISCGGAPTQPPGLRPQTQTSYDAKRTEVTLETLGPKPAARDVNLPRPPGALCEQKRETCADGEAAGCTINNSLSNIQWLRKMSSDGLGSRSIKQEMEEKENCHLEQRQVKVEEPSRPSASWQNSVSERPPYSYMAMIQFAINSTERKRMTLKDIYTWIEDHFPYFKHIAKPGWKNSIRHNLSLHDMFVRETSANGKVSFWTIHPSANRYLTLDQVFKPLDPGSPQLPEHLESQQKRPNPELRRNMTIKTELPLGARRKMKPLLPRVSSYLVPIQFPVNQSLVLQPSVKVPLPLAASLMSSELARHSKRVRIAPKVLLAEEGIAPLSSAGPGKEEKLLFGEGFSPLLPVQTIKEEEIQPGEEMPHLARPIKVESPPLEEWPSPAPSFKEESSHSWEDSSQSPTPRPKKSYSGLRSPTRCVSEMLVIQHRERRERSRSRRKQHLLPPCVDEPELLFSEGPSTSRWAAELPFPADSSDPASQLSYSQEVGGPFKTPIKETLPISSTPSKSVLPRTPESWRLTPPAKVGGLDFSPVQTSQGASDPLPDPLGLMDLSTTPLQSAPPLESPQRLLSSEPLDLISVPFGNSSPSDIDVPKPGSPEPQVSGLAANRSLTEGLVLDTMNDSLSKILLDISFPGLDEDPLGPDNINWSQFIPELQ
Protocol: Competitive binding assays of FOXM1 inhibitor binding to FOXM1 by tr-FRET were conducted. All tr-FRET experiments used FRET buffer (20 mM Tris, pH 7.5, 50 mM NaCl, 0.01% NP-40 detergent, 10% glycerol) with 0.3 mg/ml ovalbumin and 0.1 mM butylated hydroxy-anisole added fresh daily. Solutions of the protein, fluorescent probe and inhibitor dilutions were prepared at 3× the final concentrations, the final dilution taking place as they were mixed together on the microtiter plate.
Final concentrations were 10^-5M to 10^-9M, with the last point being buffer only, no inhibitor. Fluorescein-NB-72 (Fl-NB-72) was prepared at 1 mM in DMF and stored at −20° C. It was diluted into plain FRET buffer to give 100 nM in the assay.
Incubations were done in duplicate on black Molecular Devices 96-well microtiter plates. […] To this were added 5 μL of the inhibitor dilutions, mixed and incubated, in the dark, at room temperature, for 1 h. […] Diffusion-enhanced FRET was determined by a parallel incubation without biotin-FOXM1 and subtracted as a background signal. Graphs were prepared using Graph Pad/Prism 4.

[5] = system: FOXM1 target genes in MCF7 cells; assay: FOXM1 target gene expression by qRT-PCR, MCF7; assay type: cell-based, human; settings: MCF7, 24 h, at IC50 concentration
Protocol: (§5) RNA was extracted from cells and expression of different genes was monitored by qRT-PCR. Assays were run in triplicate. Values are mean±SEM. *, p<0.05; **, p<0.01; ***, p<0.001. RNA isolation and real-time PCR Total RNA was isolated using TRIzol (Invitrogen) and reverse transcribed using […] reverse transcriptase (New England BioLabs). Real-time PCR was performed using SYBRgreen PCR Master Mix (Roche) as described (Bergamaschi et al., Breast Cancer Res., 2014, 16:436). Relative mRNA levels of genes were normalized to the housekeeping gene 36B4, and fold change calculated relative to the vehicle treated samples. Results are the average±SD from at least two independent experiments carried out in triplicate. Primer sequences for the genes studied were obtained from the Harvard Primer Bank. Sequences are available on their website.

[6] = system: FOXM1 target genes in DT22 cells; assay: FOXM1 target gene expression by qRT-PCR, DT22; assay type: cell-based, human; settings: DT22, 24 h, at IC50 concentration
Description: as §5, with “Real-time PCR was performed using SYBRgreen PCR Master Mix (Roche) as described (Bergamaschi et al., Breast Cancer Res., 2014, 16:436).” left out

FOXM1 protein [7] = target: T1, FOXM1 protein; assay: Direct binding of Fl-NB-72 to FOXM1 by tr-FRET; settings: direct tr-FRET titration
Protocol: Direct binding experiments for determination of Kd for Fl-NB-72. […] The Biotin-FOXM1 was diluted to a concentration of 3×(5 nM+1.25 nM SaTb). 5 μL of each of these were mixed on a black Molecular Devices microtiter plate with 5 μL of FRET buffer, so that each component was diluted 3×. Each point was prepared in duplicate, mixed, and incubated for 1 h at room temperature, in the dark. tr-FRET was measured on a Victor X5 microtiter plate reader with settings as given above.

Row | IC50 (breast cancer cell lines; cell line not specified or several lines, read-out: IC50 for inhibition of proliferation of breast cancer cell lines) | PK p.o. AUC0-48 ([2]; 40 mg/kg p.o.) | PK p.o. t1/2 ([2]; 40 mg/kg p.o.) | PK s.c. AUC0-48 ([2]; 40 mg/kg s.c.) | PK s.c. t1/2 ([2]; 40 mg/kg s.c.) | IC50 (MCF7 cells) | IC50 [3] | Ki (FOXM1 protein [4]) | Kd (FOXM1 protein [7]) | SMILES | Growth of MCF7 E2-treated xenograft tumors (MCF7 xenograft tumors) | Concentration for 50% suppression of proliferation in MCF10A versus cells with high and intermediate FOXM1 (MCF10A cells) | Tumor suppression at lower doses ([1]; 20 or 40 mg/kg (data not shown)) | Growth of DT22 tumor xenografts ([1]; daily s.c. or oral, 100 mg/kg) | Reduced potency in suppression of cell proliferation (versus salts) (breast cancer cell lines; cells in culture) | IC50 (DT22 cells) | Expression of ATF3 (gene suppressed by FOXM1) [5] | Expression of FOXM1 stimulated target genes (FOXM1C, AURKB, CCNB1, PLK1) [5] | Expression of ATF3 (gene suppressed by FOXM1) [6] | Expression of FOXM1 stimulated target genes (FOXM1C, AURKB, CCNB1, PLK1) [6]
1 | 2 to 10 µM | 35.7 µM·h | 16.6 h | 34.7 µM·h | 26.7 h | 3 µM | 3 to 5 µM | 0.23 µM | – | Clc1ccc(C(=C2C3CC4CC(C3)CC2C4)c2ccc(OCCCCCCN3CCCC3)cc2)cc1 [NB-55, 1-(6-(4-((-((Z)-((5S,7S)-Adamantan-2-ylidene)(4-chlorophenyl)methyl)phenoxy)hexyl)pyrrolidine] | reduces; also recorded: reduced the growth | five times higher | only marginally effective | effective tumor suppression; also recorded: very effectively suppressed | 5 fold | 6 µM | increased | significantly reduced | increased | significantly reduced
2 | – | – | – | – | – | – | – | – | 0.023 µM | O=C(NCCCCCCOc1ccc(C(c2ccc(OCCCCCCN3CCCCCC3)cc2)=C2C3C[C@H]4C[C@@H](C3)C[C@H]2C4)cc1)c1ccc(-c2c3ccc(=O)cc-3oc3cc(O)ccc23)c(C(=O)O)c1 [Fl-NB-72, 5-((6-(4-((L′)-((5r,7r)-adamantan-2-ylidene)(4-((6-(azepan-1-yl)hexyl)oxy)phenyl)methyl)phenoxy)hexyl)carbamoyl)-2-(6-hydroxy-3-oxo-3H-xanthen-9-yl)benzoic acid] | – | – | – | – | – | – | – | – | – | –
